Reference: PubChem BioAssay AID1963969 (Molecular Pharmacology Branch, DTP, NCI, 2024)
Values joined by “and” are separate entries in the source; they are usually repeats but may differ in a detail not shown here. Identical values can stand only once. One block for each compound: values may come before it.

System: 817829-284-R-J1-PDC multi-cell spheroid viability
Experiment: Anticancer human tumor 817829-284-R-J1-PDC patient-derived colon adenocarcinoma cell line growth inhibition [PI3K]
Details: for viability, T/C: stronger effect = lower value
Method in brief: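 Stroma-containing spheroids: tumor line, pooled-donor HUVEC, hMSC. Treatments: targeted agents with PI3K inhibitors. Dosing: clinically relevant, half-log spacing, 10 microM ceiling without known Cmax. Read-out: cell viability.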

[1] = curve of first compound, second compound 0.0316 µM
[2] = curve of first compound, second compound 0.1 µM
[3] = curve of first compound, second compound 0.316 µM
[4] = curve of first compound, second compound 1 µM
[5] = curve of first compound, second compound 3.16 µM
[6] = curve of first compound, second compound 10 µM
[7] = second compound 0.0316 µM, first compound 0.0316 µM
[8] = second compound 0.0316 µM, first compound 0.1 µM
[9] = second compound 0.1 µM, first compound 0.0316 µM
[10] = second compound 0.1 µM, first compound 0.1 µM
[11] = second compound 0.316 µM, first compound 0.0316 µM
[12] = second compound 0.316 µM, first compound 0.1 µM
[13] = second compound 1 µM, first compound 0.0316 µM
[14] = second compound 1 µM, first compound 0.1 µM
[15] = second compound 3.16 µM, first compound 0.0316 µM
[16] = second compound 3.16 µM, first compound 0.1 µM
[17] = second compound 10 µM, first compound 0.0316 µM
[18] = second compound 10 µM, first compound 0.1 µM
[19] = second compound 0.0316 µM, first compound 0.316 µM
[20] = second compound 0.0316 µM, first compound 1 µM
[21] = second compound 0.0316 µM, first compound 3.16 µM
[22] = second compound 0.0316 µM, first compound 10 µM
[23] = second compound 0.1 µM, first compound 0.316 µM
[24] = second compound 0.1 µM, first compound 1 µM
[25] = second compound 0.1 µM, first compound 3.16 µM
[26] = second compound 0.1 µM, first compound 10 µM
[27] = second compound 0.316 µM, first compound 0.316 µM
[28] = second compound 0.316 µM, first compound 1 µM
[29] = second compound 0.316 µM, first compound 3.16 µM
[30] = second compound 0.316 µM, first compound 10 µM
[31] = second compound 1 µM, first compound 0.316 µM
[32] = second compound 1 µM, first compound 1 µM
[33] = second compound 1 µM, first compound 3.16 µM
[34] = second compound 1 µM, first compound 10 µM
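Note: spheroids exposed to agents for seven days before readout.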
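Throughout, for viability, T/C: percent of vehicle DMSO control viability which is 100%.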

Structure (SMILES): CCCS(=O)(=O)Nc1ccc(F)c(C(=O)c2c[nH]c3ncc(-c4ccc(Cl)cc4)cc23)c1F + COc1c(OCCCN2CCOCC2)ccc2c3n(c(=NC(=O)c4cnc(N)nc4)nc12)CCN3
IC50 (curve of first compound, second compound 0.00316 µM): 1900 nM | IC50 (curve of first compound, second compound 0.01 µM): 4240 nM | IC50 [1]: 2300 nM | IC50 [2]: 31.6 nM | IC50 [3]: < 31.6 nM | IC50 [4]: < 31.6 nM | viability, T/C (second compound 0.00316 µM, first compound 0.0316 µM): 117% | viability, T/C (second compound 0.00316 µM, first compound 0.1 µM): 87% | viability, T/C (second compound 0.00316 µM, first compound 0.316 µM): 71.5% | viability, T/C (second compound 0.00316 µM, first compound 1 µM): 66.4% | viability, T/C (second compound 0.00316 µM, first compound 3.16 µM): 59.5% | viability, T/C (second compound 0.00316 µM, first compound 10 µM): 10.7% | viability, T/C (second compound 0.01 µM, first compound 0.0316 µM): 104% | viability, T/C (second compound 0.01 µM, first compound 0.1 µM): 53.6% | viability, T/C (second compound 0.01 µM, first compound 0.316 µM): 66.5% | viability, T/C (second compound 0.01 µM, first compound 1 µM): 70.9% | viability, T/C (second compound 0.01 µM, first compound 3.16 µM): 64.1% | viability, T/C (second compound 0.01 µM, first compound 10 µM): 8.97% | viability, T/C [7]: 45.4% | viability, T/C [8]: 70% | viability, T/C [19]: 43.8% | viability, T/C [20]: 64.1% | viability, T/C [21]: 47.9% | viability, T/C [22]: 10.2% | viability, T/C [9]: 34.4% | viability, T/C [10]: 39.3% | viability, T/C [23]: 71.2% | viability, T/C [24]: 26.8% | viability, T/C [25]: 28.2% | viability, T/C [26]: 14.4% | viability, T/C [11]: 21.7% | viability, T/C [12]: 19.6% | viability, T/C [27]: 21.3% | viability, T/C [28]: 16% | viability, T/C [29]: 16.1% | viability, T/C [30]: 9.88% | viability, T/C [13]: 10% | viability, T/C [14]: 14.3% | viability, T/C [31]: 8.54% | viability, T/C [32]: 6.57% | viability, T/C [33]: 9.78% | viability, T/C [34]: 4.54%

Structure (SMILES): CC1(C)CCC(CN2CCN(c3ccc(C(=O)NS(=O)(=O)c4ccc(NCC5CCOCC5)c([N+](=O)[O-])c4)c(Oc4cnc5[nH]ccc5c4)c3)CC2)=C(c2ccc(Cl)cc2)C1 + Cc1nc(NC(=O)N2CCCC2C(N)=O)sc1-c1ccnc(C(C)(C)C(F)(F)F)c1
IC50 [1]: 5010 nM | IC50 [2]: 4250 nM | IC50 [3]: 3890 nM | IC50 [4]: 3470 nM | IC50 [5]: 4740 nM | IC50 [6]: 2430 nM | viability, T/C [7]: 86.7% | viability, T/C [8]: 69.7% | viability, T/C [19]: 119% | viability, T/C [20]: 42.6% | viability, T/C [21]: 84.3% | viability, T/C [22]: 4.12% | viability, T/C [9]: 97.7% | viability, T/C [10]: 67.1% | viability, T/C [23]: 98.3% | viability, T/C [24]: 87.8% | viability, T/C [25]: 65.6% | viability, T/C [26]: 4.95% | viability, T/C [11]: 67.2% | viability, T/C [12]: 58.8% | viability, T/C [27]: 72.7% | viability, T/C [28]: 70.4% | viability, T/C [29]: 58.6% | viability, T/C [30]: 6.66% | viability, T/C [13]: 65.9% | viability, T/C [14]: 67.7% | viability, T/C [31]: 82.7% | viability, T/C [32]: 72.6% | viability, T/C [33]: 54.1% | viability, T/C [34]: 3.59% | viability, T/C [15]: 73.6% | viability, T/C [16]: 62.2% | viability, T/C (second compound 3.16 µM, first compound 0.316 µM): 104% | viability, T/C (second compound 3.16 µM, first compound 1 µM): 72.2% | viability, T/C (second compound 3.16 µM, first compound 3.16 µM): 74.2% | viability, T/C (second compound 3.16 µM, first compound 10 µM): 5.23% | viability, T/C [17]: 81.1% | viability, T/C [18]: 89.8% | viability, T/C (second compound 10 µM, first compound 0.316 µM): 57.6% | viability, T/C (second compound 10 µM, first compound 1 µM): 78.8% | viability, T/C (second compound 10 µM, first compound 3.16 µM): 42% | viability, T/C (second compound 10 µM, first compound 10 µM): 2.17%

Structure (SMILES): CNC(=O)c1ccc(N2C(=S)N(c3ccc(C#N)c(C(F)(F)F)c3)C(=O)C2(C)C)cc1F
viability, T/C (compound 0.0316 µM): 86.9% and 87.2% and 88.4% | viability, T/C (compound 0.1 µM): 93.2% and 97.5% and 76.6% | viability, T/C (compound 0.316 µM): 70.6% and 71.9% and 77.2% | viability, T/C (compound 1 µM): 99.3% and 68.8% and 80.3% | viability, T/C (compound 3.16 µM): 84.2% and 97.4% and 67.9% | viability, T/C (compound 10 µM): 65.4% and 29% and 68.9% | IC50 (curve of compound): > 10000 nM and 6480 nM

Continued, in another order:

IC50 [1]: 70.9 nM | IC50 [2]: 74 nM | IC50 [3]: > 100 nM | IC50 [4]: 71.2 nM | IC50 [5]: 14.3 nM | IC50 [6]: 33.4 nM
Structure (SMILES): CC(=O)c1c(C)c2cnc(Nc3ccc(N4CCNCC4)cn3)nc2n(C2CCCC2)c1=O + CC(Nc1ncnc2nc[nH]c12)c1cc2cccc(Cl)c2c(=O)n1-c1ccccc1
viability, T/C (second compound 0.0316 µM, first compound 0.000316 µM): 96% | viability, T/C (second compound 0.0316 µM, first compound 0.001 µM): 68.1% | viability, T/C (second compound 0.0316 µM, first compound 0.00316 µM): 74.3% | viability, T/C (second compound 0.0316 µM, first compound 0.01 µM): 75.4% | viability, T/C [7]: 77% | viability, T/C [8]: 38.6% | viability, T/C (second compound 0.1 µM, first compound 0.000316 µM): 92.5% | viability, T/C (second compound 0.1 µM, first compound 0.001 µM): 79.8% | viability, T/C (second compound 0.1 µM, first compound 0.00316 µM): 74.5% | viability, T/C (second compound 0.1 µM, first compound 0.01 µM): 90.2% | viability, T/C [9]: 79% | viability, T/C [10]: 39.4% | viability, T/C (second compound 0.316 µM, first compound 0.000316 µM): 90.8% | viability, T/C (second compound 0.316 µM, first compound 0.001 µM): 85% | viability, T/C (second compound 0.316 µM, first compound 0.00316 µM): 101% | viability, T/C (second compound 0.316 µM, first compound 0.01 µM): 60.2% | viability, T/C [11]: 56.5% | viability, T/C [12]: 51.3% | viability, T/C (second compound 1 µM, first compound 0.000316 µM): 101% | viability, T/C (second compound 1 µM, first compound 0.001 µM): 73.1% | viability, T/C (second compound 1 µM, first compound 0.00316 µM): 78.7% | viability, T/C (second compound 1 µM, first compound 0.01 µM): 83.5% | viability, T/C [13]: 59.8% | viability, T/C [14]: 43.5% | viability, T/C (second compound 3.16 µM, first compound 0.000316 µM): 65% | viability, T/C (second compound 3.16 µM, first compound 0.001 µM): 134% | viability, T/C (second compound 3.16 µM, first compound 0.00316 µM): 78.8% | viability, T/C (second compound 3.16 µM, first compound 0.01 µM): 57.5% | viability, T/C [15]: 37.8% | viability, T/C [16]: 42.7% | viability, T/C (second compound 10 µM, first compound 0.000316 µM): 60.1% | viability, T/C (second compound 10 µM, first compound 0.001 µM): 54.4% | viability, T/C (second compound 10 µM, first compound 0.00316 µM): 51% | viability, T/C (second compound 10 µM, first compound 0.01 µM): 66.3% | viability, T/C [17]: 46.6% | viability, T/C [18]: 34.4%

IC50 (curve of compound): 6660 nM and > 10000 nM
Structure (SMILES): C#Cc1c(F)ccc2cc(O)cc(-c3ncc4c(N5CC6CCC(C5)N6)nc(OCC56CCCN5CC(F)C6)nc4c3F)c12 (stereo not given)
viability, T/C (compound 0.0316 µM): 83.3% and 99% | viability, T/C (compound 0.1 µM): 95.1% and 72.9% | viability, T/C (compound 0.316 µM): 69.9% and 83% | viability, T/C (compound 1 µM): 68.4% and 99.7% | viability, T/C (compound 3.16 µM): 87.7% and 88.6% | viability, T/C (compound 10 µM): 33.2% and 56.2%
